# Patent publication US20150216870A1, “Combination of PI3K Inhibitor and C-Met Inhibitor” (Novartis AG, priority 2012, published 2015)
# Experiments:
# NCI-H1648 = test: Cell viability (CellTiterGlo) combination dose matrix in NCI-H1648; assay type: cell-based, human; conditions: combination with c-Met inhibitor, 72 h, excluding highest concentration
# Experimental: (§1) Compound stocks of both compounds are individually prepared in DMSO. Compounds are serially diluted using a Tecan dispenser to cover a ˜1000× range of concentrations. […] Both single agent and combinations are tested at multiple concentrations, along with controls and one self-cross.
# (§2) The cell lines used in this study are purchased from American Type Cell Collection, including human non small cell lung cancer cell lines EBC-1 (which bears c-Met amplification), NCI-H1993 (which bears c-MET amplified), NCI-H1648 (which bears c-Met amplification), NCI-H1573 (which bears c-Met amplification and KRAS mutation) and HCC2935 (EGFR mutation). All cell lines are maintained in their respective culture medium as specified by the provider.
# (§3) For the assessment of combination effects, cells are seeded into 384-well plates at 500 cells/well and incubated overnight. […]
# (§4) Effects of single agents as well as their combination on cell viability is assessed after 72 hours of incubation at 37° C./5% CO2 by quantification of cellular ATP levels (CellTiterGlo, Promega) using 25 μL reagent/well and n=2 replicate plates per condition. The number/viability of cells at time of compound addition is likewise assessed and used to estimate the population doubling time of a cell line.
# (§5) For untreated and treated levels U and T, inhibition is calculated using the formula I=1−T/U, which ranges from 0% to 100% for complete inhibition. […]
# (§6) The Loewe expectation [Loewe S., Ergebn Physiol 27: 47-187 (1928)) is calculated at each dose pair CX,Y by finding the inhibition ILoewe such that (CX/ICX)+(CY/ICY)=1, and ICX,Y are the effective concentrations at ILoewe for the fitted single agent curves, using numerical optimization [Berenbaum M C, J Theor Biol 114: 413-431 (1985)]. The “synergy score” S is calculated by averaging the difference between Idata and ILoewe across all the tested combination dose points, excluding the highest concentration point in the dose matrix, which is most likely to be dominated by drug off-target effects. […]
# NCI-H1573 = test: Cell viability (CellTiterGlo) combination dose matrix in NCI-H1573; assay type: cell-based, human; conditions: combination with c-Met inhibitor, 72 h, excluding highest concentration
# Experimental: as §1, §2, §3, §4, §5, §6
# A172 = test: CellTiter-Glo cell viability dose matrix in A172 glioblastoma cells; assay type: cell-based, human; conditions: A172 (PTEN mutant, low HGF)
# Experimental: (§7) The PI3K inhibitor COMPOUND C and the c-MET receptor tyrosine kinase inhibitor 2-fluoro-N-methyl-4-[7-quinolin-6-yl-methyl)-imidazo[1,2-b][1,2,4]triazin-2yl]benzamide are evaluated in combination in glioblastoma tumor models. COMPOUND C (10 mM) and 2-fluoro-N-methyl-4-[7-quinolin-6-yl-methyl)-imidazo[1,2-b][1,2,4]triazin-2yl]benzamide (10 mM) are dissolved in DMSO, and are stored in aliquots at −20° C.
# (§8) Human Glioblastoma cell lines, U-87 MG (PTEN mutant and HGF expressing line), H4 (PTEN mutant and HGF expressing line), A172 (PTEN mutant line with low HGF expression level) and LN-229 (PTEN wildtype and HGF low) are purchased from American Type Cell Collection and are maintained in a humidified incubator at 37° C. in 5% CO2 in recommended media. All four cell lines express detected MET at the mRNA level.
# (§9) The cells are passaged twice a week and the medium is changed every 2 to 3 days. […]
# (§10) Cell viability is determined by measuring cellular ATP content using the CellTiter-Glo® (CTG) luminescent cell viability assay (Promega). […] An equal volume of the CTG reagents is added to each well at the end of the compound treatment and luminescence is recorded on an Envision plate reader (Perkin Elmer). Reduced and enhanced luminescent signal values (responses) are calculated relative to untreated (control) cells. […]
# LN-229 = test: CellTiter-Glo cell viability dose matrix in LN-229 glioblastoma cells; assay type: cell-based, human; conditions: LN229 (PTEN wildtype, HGF low)
# Experimental: as §7, §8, §9, §10
# H4 = test: CellTiter-Glo cell viability dose matrix in H4 glioblastoma cells; assay type: cell-based, human; conditions: H4 (PTEN mutant, HGF expressing)
# Experimental: as §7, §8, §9, §10
# [1] = system: U-87 MG human glioblastoma xenograft; test: U-87 MG xenograft tumor growth inhibition and tumor growth delay; assay type: in vivo, nude mice; conditions: for T/C or T/T0: D13
# Experimental: In this experiment, the U-87 MG human glioblastoma xenograft model is used to assess the anti-tumor efficacy of the PI3K inhibitor COMPOUND C and c-Met inhibitor 2-fluoro-N-methyl-4-[7-quinolin-6-yl-methyl)-imidazo[1,2-b][1,2,4]triazin-2yl]benzamide as single agents or in combination. U-87 MG tumor cells obtained from the National Cancer Institute are reported to be homozygous for likely oncogenic variants of CDKN2A, CDKN2C, CDKN2a, and PTEN; no mutations are detected in MET, PIK3CA, or 58 other genes that are frequently altered in neoplastic cells; and HGF expressing.
# Mice are treated daily for 21 days with 17.7 and 35.3 mg/kg of the c-Met inhibitor and 32.7 mg/kg COMPOUND C monotherapies, and with the c-Met inhibitor/COMPOUND C dual therapy at 17.7:32.7. An c-Met inhibitor/COMPOUND C combination at the 58.8:5.4 mg/kg dose ratio was included in the study. The control mice received both vehicles, and a standard preclinical temozolomide regimen monitored tumor model performance. The oral treatments began on Day 1 (D1) in nude mice with established subcutaneous tumors. Each animal was euthanized when its tumor reached the predetermined 2000 mm3 endpoint volume, or on D60, whichever came first. The study was terminated on D51. […] Overall efficacy was determined from the times required for tumors to progress to the volume endpoint, and from D51 survival and regression rates. This report describes the methods and results of the U87MG-e326 tumor growth delay experiment.
# The animals are fed ad libitum water (reverse osmosis, 1 ppm CI) and NIH 31 Modified and Irradiated Lab Diet® consisting of 18.0% crude protein, 5.0% crude fat, and 5.0% crude fiber. The mice are housed on irradiated Enrich-O'cobs™ Laboratory Animal Bedding in static microisolators on a 12-hour light cycle at 20-22° C. (68-72° F.) and 40-60% humidity.
# The U-87 MG tumor line is obtained from the American Type Culture Collection and maintained by serial engraftment in nude mice. A tumor fragment (1 mm^3) is implanted subcutaneously into the right flank of each test mouse. Tumors are calipered in two dimensions to monitor growth as their mean volume approached the desired 100-150 mm^3 range. Tumor size, in mm^3, was calculated from: Tumor Volume=(width^2×length)/2, where width and length (in mm) are measurements of the tumor. Tumor weight can be estimated with the assumption that 1 mg is equivalent to 1 mm^3 of tumor volume. Fourteen days after tumor cell implantation, on D1 of the study, mice with individual tumor volumes of 63-196 mm^3 are sorted into seven groups, with group mean tumor volumes of 122-127 mm^3.
# The c-Met inhibitor 2-fluoro-N-methyl-4-[7-quinolin-6-yl-methyl)-imidazo[1,2-b][1,2,4]triazin-2yl]benzamide (di-HCl salt, 84.98% free base) is stored at 4° C. and is added to deionized water at 2× the final concentration and sonicated until dissolved. An equal volume of 0.5% methylcellulose and 0.1% Tween® 80 in deionized water is added to provide a 5.884 mg/mL dosing solution in 0.25% methylcellulose and 0.05% Tween® 80 in deionized water (Vehicle 1). Portions of this solution are diluted with Vehicle 1 to provide 3.53 and 1.765 mg/mL dosing solutions.
# COMPOUND C (HCl salt, 91.85% free base) is stored at −20° C. and is added to 1% Tween® 80 in deionized water and sonicated to obtain a uniform suspension at 2× the final concentration. […] The 0.544 mg/mL dosing suspension is obtained by diluting a portion of the first suspension with Vehicle 2.
# HCC2935 = test: Cell viability (CellTiterGlo) combination dose matrix in HCC2935; assay type: cell-based, human; conditions: combination with c-Met inhibitor, 72 h, excluding highest concentration
# Experimental: as §1, §2, §3, §4, §5, §6
# EBC-1 = test: Cell viability (CellTiterGlo) combination dose matrix in EBC-1; assay type: cell-based, human; conditions: combination with c-Met inhibitor, 72 h, excluding highest concentration, 0 no inhibition, 1 = 100% inhibition/stasis, 2 = cell death
# Experimental: as §1, §2, §3, §4, §5, §6
# U-87 MG = test: CellTiter-Glo cell viability dose matrix in U-87 MG glioblastoma cells; assay type: cell-based, human; conditions: U87 MG (PTEN mutant, HGF expressing)
# Experimental: as §7, §8, §9, §10
# NCI-H1993 = test: Cell viability (CellTiterGlo) combination dose matrix in NCI-H1993; assay type: cell-based, human; conditions: combination with c-Met inhibitor, 72 h, excluding highest concentration
# Experimental: as §1, §2, §3, §4, §5, §6
# [2] = COMPOUND C 32.7 mg/kg (30 mg/kg free base) p.o. qd x21
compound,measurement,setting,value
"Nc1cc(C(F)(F)F)c(-c2cc(N3CCOCC3)nc(N3CCOCC3)n2)cn1 [COMPOUND C, 5-(2,6-di-morpholin-4-yl-pyrimidin-4-yl)-4-trifluoromethyl-pyridin-2-ylamine]","MaxGI (GImax, combination effectiveness)",NCI-H1648,1.78
same,"MaxGI (GImax, combination effectiveness)",NCI-H1573,1.54
same,anti-proliferative activity (single agent),A172,concentration dependent anti-proliferative activity
same,anti-proliferative activity (single agent),LN-229,less active
same,anti-proliferative activity (single agent),H4,concentration dependent anti-proliferative activity
same,increase of median TTE,[1]; COMPOUND C 30 mg/kg free base p.o. qd x21,9.3 days
same,% TGD,[1]; [2],79%
same,T/C or T/T0,[1]; [2],31%
same,T/C or T/T0,"[1]; COMPOUND C 32.7 mg/kg (30 mg/kg free base) p.o. qd x21, listed as CMPD. C",31%
same,Median TTE,"[1]; COMPOUND C 32.7 mg/kg (30 mg/kg free base) p.o. qd x21, endpoint 2000 mm3",21.0 days
same,Regress.,"[1]; COMPOUND C 32.7 mg/kg p.o. qd x21, number of animals",0
same,"MaxGI (GImax, combination effectiveness)",HCC2935,1.37
same,"MaxGI (GImax, combination effectiveness)",EBC-1,1.83
same,anti-proliferative activity (single agent),U-87 MG,concentration dependent anti-proliferative activity
same,"MaxGI (GImax, combination effectiveness)",NCI-H1993,1.67
